The experiment concerns the target T1, MMP2 (Homo sapiens, UniProt P08253).
T1 sequence (P08253 110-660): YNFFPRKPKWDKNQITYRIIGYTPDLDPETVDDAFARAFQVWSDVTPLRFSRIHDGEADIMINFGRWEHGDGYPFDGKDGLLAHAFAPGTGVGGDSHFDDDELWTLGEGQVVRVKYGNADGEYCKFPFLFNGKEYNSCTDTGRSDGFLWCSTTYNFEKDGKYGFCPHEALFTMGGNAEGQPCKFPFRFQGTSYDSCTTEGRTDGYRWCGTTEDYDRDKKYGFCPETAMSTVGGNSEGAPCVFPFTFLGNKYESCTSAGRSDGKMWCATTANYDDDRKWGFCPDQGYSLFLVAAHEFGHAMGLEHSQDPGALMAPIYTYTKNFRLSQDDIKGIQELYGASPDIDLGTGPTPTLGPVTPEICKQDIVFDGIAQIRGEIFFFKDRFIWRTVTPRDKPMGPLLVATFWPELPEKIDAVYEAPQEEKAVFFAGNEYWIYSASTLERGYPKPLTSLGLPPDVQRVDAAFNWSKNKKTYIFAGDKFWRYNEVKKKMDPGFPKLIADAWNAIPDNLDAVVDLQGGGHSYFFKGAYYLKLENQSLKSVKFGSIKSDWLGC
Put plainly: Inhibitory effects on human MMP2 (Method 1), enzyme assay with MOCAc-Pro-Leu-Gly-Leu-A2pr(Dnp)-Ala-Arg-NH2 substrate, 96-well. Format: biochemical. The note with it: Test Example No. 1-1 (Method 1, 96-well microplate); read-out: Human MMP2, IC50. As for the experimental part: In a reaction solution [50 mmol/L Tris-HCl (pH 7.5), 150 mmol/L NaCl, 10 mmol/L CaCl2, 0.05% Brij L23], 100 μg/mL human recombinant MMP2 enzyme and 1 mmol/L 4-Aminophenylmercuric acetate were mixed together, and reacted at 37° C. for 60 minutes. The human MMP2 activated through the reaction was poured into a 96-well microplate to reach a final concentration of 0.7 or 7 ng/mL.

Each structure is given as a SMILES string. *1 amine or outer side, *2 acyl side, *3 side chain or, on linkers, in order; H or OH if unused. Where a SMILES comes first, the peptide text is derived from it. [ ]: non-standard residue; d: D form. The star is where a group is joined. Phenylsulfonyl(4-anisamido) = COc1ccc(C(=O)Nc2ccc(S(=O)(=O)*)cc2)cc1; Benzoyl(4-(4-EtNHCO-PhO)) = CCNC(=O)c1ccc(Oc2ccc(C(=O)*)cc2)cc1; Benzoyl(4-O-C6H4-4-CONHMe) = CNC(=O)c1ccc(Oc2ccc(C(=O)*)cc2)cc1; X11 = O=C(O)CCCCNC(=O)c1ccc(Oc2ccc(C(=O)*)cc2)cc1; X19 = O=C(O)CNC(=O)c1ccc(Oc2ccc(C(=O)*)cc2)cc1; X17 = CC(=O)Nc1ccc(-c2ccc(S(=O)(=O)*)cc2)cc1; Benzoyl(4-OPh) = O=C(c1ccc(Oc2ccccc2)cc1)*; d(γGlu) = O=C(O)[C@@H](CCC(=O)[*:2])N[*:1]; d(βAsp) = O=C(O)[C@@H](CC(=O)[*:2])N[*:1]; X13 = Cc1ccc(C#Cc2ccc(S(=O)(=O)*)s2)cc1; NMeF = CN[C@@H](Cc1ccccc1)C(=O)O; NMeI = CC[C@H](C)[C@H](NC)C(=O)O; NMeE = CN[C@@H](CCC(=O)O)C(=O)O; NMeN = CN[C@@H](CC(N)=O)C(=O)O; NMeK = CN[C@@H](CCCCN)C(=O)O; NMeM = CN[C@@H](CCSC)C(=O)O; NMeV = CN[C@H](C(=O)O)C(C)C; β3hP = O=C(O)C[C@@H]1CCCN1; Dab = NCC[C@H](N)C(=O)O; Aib = CC(C)(N)C(=O)O; Ahx = NCCCCCC(=O)O; Ava = NCCCCC(=O)O; GABA = NCCCC(=O)O

Broadly, the IC50 is the midpoint of a concentration-inhibition curve. `CCNC(=O)c1ccc(Oc2ccc(C(=O)NCCCCCC(=O)N[C@@H](CCCCN)C(=O)N[C@@H](CC(=O)O)C(=O)N[C@@H](CCN)C(=O)N[C@@H](CC(C)C)C(=O)N(C)[C@@H](CCC(=O)O)C(=O)N3CCC[C@H]3CC(N)=O)cc2)cc1` [Compound 194] ({Benzoyl(4-(4-EtNHCO-PhO))-Ahx}-KD[Dab]L[NMeE][β3hP]-NH2; N-terminus assumed): the IC50 came to 3.7 nM.

With `CC[C@H](C)[C@@H](C(=O)NC(C)(C)C(N)=O)N(C)C(=O)[C@H](CC(C)C)NC(=O)[C@H](C)NC(=O)[C@H](CC(=O)O)NC(=O)[C@H](CC(N)=O)N(C)C(=O)CCCNC(=O)c1ccc(Oc2ccccc2)cc1` [Compound 98] ({Benzoyl(4-OPh)-GABA}-[NMeN]DAL[NMeI][Aib]-NH2; N-terminus assumed), the half-inhibitory concentration (IC50) was 0.27 nM. The value for `CC[C@H](C)[C@@H](C(=O)N1CCC[C@H]1C(N)=O)N(C)C(=O)[C@H](CC(C)C)NC(=O)[C@H](C)NC(=O)[C@H](CC(=O)O)NC(=O)[C@H](Cc1ccccc1)N(C)C(=O)CCCNC(=O)c1ccc(Oc2ccccc2)cc1` [Compound 124] ({Benzoyl(4-OPh)-GABA}-[NMeF]DAL[NMeI]P-NH2; N-terminus assumed) was 0.31 nM.

As to `CC[C@H](C)[C@@H](C(=O)N1CCC[C@H]1CC(N)=O)N(C)C(=O)[C@H](CC(C)C)NC(=O)[C@H](C)NC(=O)C[C@@H](NS(=O)(=O)c1ccc(-c2ccc(NC(C)=O)cc2)cc1)C(=O)O` [Compound 636] ({X17-d(βAsp)}-AL[NMeI][β3hP]-NH2; N-terminus assumed), the IC50 was determined as 0.94 nM.

For the compound `COc1ccc(C(=O)Nc2ccc(S(=O)(=O)N[C@H](CCC(=O)N[C@@H](CCN)C(=O)N[C@@H](CC(C)C)C(=O)N(C)[C@@H](CCC(=O)O)C(=O)N3CCC[C@H]3CC(N)=O)C(=O)O)cc2)cc1` [Compound 697] ({Phenylsulfonyl(4-anisamido)-d(γGlu)}-[Dab]L[NMeE][β3hP]-NH2; N-terminus assumed), the IC50 was 0.28 nM.

As to `CC[C@H](C)[C@@H](C(=O)N1CCC[C@H]1C(N)=O)N(C)C(=O)[C@H](CC(C)C)NC(=O)[C@H](CCN)NC(=O)[C@H](CC(=O)O)NC(=O)[C@H](C(C)C)N(C)C(=O)CCCNC(=O)c1ccc(Oc2ccccc2)cc1` [Compound 135] ({Benzoyl(4-OPh)-GABA}-[NMeV]D[Dab]L[NMeI]P-NH2; N-terminus assumed), the concentration for half-maximal inhibition (IC50) was found to be 9.3 nM. As to `CC[C@H](C)[C@@H](C(=O)N1CCC[C@H]1CC(N)=O)N(C)C(=O)[C@H](CC(C)C)NC(=O)[C@H](CCN)NC(=O)[C@H](CC(=O)O)NC(=O)[C@H](CCCCN)NC(=O)CCCCNC(=O)c1ccc(Oc2ccc(C(=O)NC)cc2)cc1` [Compound 185] ({Benzoyl(4-O-C6H4-4-CONHMe)-Ava}-KD[Dab]L[NMeI][β3hP]-NH2; N-terminus assumed), the concentration for half-maximal inhibition (IC50) came out at 1 nM. The value for `CSCC[C@H](NC(=O)[C@H](CC(C)C)NC(=O)[C@H](C)NC(=O)[C@H](CC(=O)O)NC(=O)[C@H](CC(N)=O)NC(=O)CCCCNC(=O)c1ccc(Oc2ccc(C(=O)NCC(=O)O)cc2)cc1)C(=O)N1CCC[C@H]1C(N)=O` [Compound 178] ({X19-Ava}-NDALMP-NH2; N-terminus assumed) was 3.6 nM; that for `CSCC[C@@H](C(=O)N1CCC[C@H]1C(N)=O)N(C)C(=O)[C@H](CC(C)C)NC(=O)[C@H](C)NC(=O)[C@H](CC(=O)O)NC(=O)[C@H](CC(N)=O)NC(=O)CCCNS(=O)(=O)c1ccc(C#Cc2ccc(C)cc2)s1` [Compound 588] ({X13-GABA}-NDAL[NMeM]P-NH2; N-terminus assumed) was 0.12 nM; that for `CC[C@H](C)[C@@H](C(=O)N1CCC[C@H]1CC(N)=O)N(C)C(=O)[C@H](CC(C)C)NC(=O)[C@H](CCN)NC(=O)[C@H](CC(=O)O)NC(=O)[C@H](CCC(=O)O)NC(=O)CCCCNC(=O)c1ccc(Oc2ccc(C(=O)NCCCCC(=O)O)cc2)cc1` [Compound 200] ({X11-Ava}-ED[Dab]L[NMeI][β3hP]-NH2; N-terminus assumed) was 7.4 nM.

Regarding `CC[C@H](C)[C@@H](C(=O)N1CCC[C@H]1C(N)=O)N(C)C(=O)[C@H](CC(C)C)NC(=O)[C@H](C)NC(=O)[C@H](CC(=O)O)NC(=O)[C@H](CCCCN)N(C)C(=O)CCCNC(=O)c1ccc(Oc2ccccc2)cc1` [Compound 127] ({Benzoyl(4-OPh)-GABA}-[NMeK]DAL[NMeI]P-NH2; N-terminus assumed), the IC50 turned out to be 0.24 nM.

The values are drawn from patent US20240199692A1 (priority 2019, published 2024).
